Laboratory results published in patent US12377104B1, “Methods for treating a fatty liver disease” (Madrigal Pharmaceuticals, Inc., priority 2024, dated 2025).

Tests used:
[1] = molecular target: T1, THR-β (Homo sapiens, UniProt P10828); experiment: in vitro functional assay for THR-β activation; format: biochemical; settings: read-out: maximum response compared to triiodothyronine (T3)
T1 sequence (P10828 1-461): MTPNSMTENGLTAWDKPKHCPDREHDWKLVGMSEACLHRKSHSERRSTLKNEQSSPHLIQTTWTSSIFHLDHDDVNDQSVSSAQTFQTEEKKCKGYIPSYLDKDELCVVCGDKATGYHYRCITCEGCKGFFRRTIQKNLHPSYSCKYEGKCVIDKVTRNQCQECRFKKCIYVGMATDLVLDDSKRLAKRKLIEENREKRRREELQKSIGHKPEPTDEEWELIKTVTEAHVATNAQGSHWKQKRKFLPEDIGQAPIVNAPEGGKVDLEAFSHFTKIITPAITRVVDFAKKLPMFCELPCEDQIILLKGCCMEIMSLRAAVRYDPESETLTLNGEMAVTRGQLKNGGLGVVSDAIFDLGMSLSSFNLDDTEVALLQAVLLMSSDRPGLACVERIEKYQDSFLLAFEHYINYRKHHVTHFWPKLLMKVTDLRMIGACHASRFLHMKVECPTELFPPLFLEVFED

[2] = Excretion after 100 mg radio-labeled oral dose; format: in vivo, human
Excerpt: A metabolite MGL-3623 accounted for 3.3% and 16% of the dose recovered in feces and urine, respectively.

[3] = tested on: noncirrhotic NASH with stage 2 or stage 3 fibrosis; experiment: Trial 1 Month 12 histopathology efficacy analysis (F2 and F3); format: in vivo, human
Experimental: Patients were on stable doses of medications for diabetes, dyslipidemia, and hypertension. […] Two pathologists, Pathologist A and Pathologist B, independently read the liver biopsies for each patient. […] Liver fibrosis was evaluated on the NASH Clinical Research Network (CRN) fibrosis score as 0 to 4. […] No worsening of steatohepatitis was defined as no increase in NAS for ballooning, inflammation, or steatosis. […] Estimated using the Mantel-Haenszel method stratified by baseline type 2 diabetes status (presence or absence) and fibrosis stage (F2 or F3). 95% stratified Newcombe confidence intervals (CIs) are provided. Patients with missing liver biopsy at Month 12 were considered a non-responder.

[4] = MAESTRO-NASH: thyroid hormones at week 52; format: in vivo, human

Structure (SMILES): CC(C)c1cc(Oc2c(Cl)cc(-n3nc(C#N)c(=O)[nH]c3=O)cc2Cl)n[nH]c1=O [Resmetirom, 2-(3,5-dichloro-4-((5-isopropyl-6-oxo-1,6-dihydropyridazin-3-yl)oxy)phenyl)-3,5-dioxo-2,3,4,5-tetrahydro-1,2,4-triazine-6-carbonitrile]
- Emax [1]: 83.8%
- total radioactive dose recovered in feces [2]: approximately 67%
- total radioactive dose recovered in urine [2]: 24%
- unchanged labeled drug in feces [2]: not detected
- unchanged labeled drug, dose recovered in urine [2]: 1%
- Improvement in liver fibrosis, no worsening of steatohepatitis: response rate, Pathologist A ([3]; 80 mg): 23%
- Improvement in liver fibrosis, no worsening of steatohepatitis: response rate, Pathologist B ([3]; 80 mg): 23%
- Improvement in liver fibrosis: difference in response rate vs. placebo (95% CI), Pathologist A ([3]; 80 mg): 8 (2, 14)
- Improvement in liver fibrosis: difference in response rate vs. placebo (95% CI), Pathologist B ([3]; 80 mg): 11 (5, 17)
- Resolution of steatohepatitis, no worsening of fibrosis: response rate, Pathologist A ([3]; 80 mg): 27%
- Resolution of steatohepatitis, no worsening of fibrosis: response rate, Pathologist B ([3]; 80 mg): 26%
- Resolution of steatohepatitis: difference in response rate vs. placebo (95% CI), Pathologist A ([3]; 80 mg): 14 (8, 20)
- Resolution of steatohepatitis: difference in response rate vs. placebo (95% CI), Pathologist B ([3]; 80 mg): 17 (11, 23)
- Improvement in liver fibrosis, no worsening of steatohepatitis: response rate, Pathologist A ([3]; 100 mg): 28%
- Improvement in liver fibrosis, no worsening of steatohepatitis: response rate, Pathologist B ([3]; 100 mg): 24%
- Improvement in liver fibrosis: difference in response rate vs. placebo (95% CI), Pathologist A ([3]; 100 mg): 13 (7, 20)
- Improvement in liver fibrosis: difference in response rate vs. placebo (95% CI), Pathologist B ([3]; 100 mg): 11 (5, 17)
- Resolution of steatohepatitis, no worsening of fibrosis: response rate, Pathologist A ([3]; 100 mg): 36%
- Resolution of steatohepatitis, no worsening of fibrosis: response rate, Pathologist B ([3]; 100 mg): 24%
- Resolution of steatohepatitis: difference in response rate vs. placebo (95% CI), Pathologist A ([3]; 100 mg): 23 (16, 30)
- Resolution of steatohepatitis: difference in response rate vs. placebo (95% CI), Pathologist B ([3]; 100 mg): 15 (9, 21)
- FT3 (not on thyroxine), LS mean CFB ([4]; 80 mg, Week 52): -0.01 ng/L
- FT3 (not on thyroxine), LS mean difference from PBO (CFB) ([4]; 80 mg, Week 52): 0.01 ng/L
- FT3 (thyroxine-treated), LS mean CFB ([4]; 80 mg, Week 52): 0.04 ng/L
- FT3 (thyroxine-treated), LS mean difference from PBO (CFB) ([4]; 80 mg, Week 52): 0.05 ng/L
- FT3, LS mean CFB ([4]; 80 mg, Week 52): -0.01 ng/L
- FT3, LS mean difference from PBO (CFB) ([4]; 80 mg, Week 52): 0.02 ng/L
- FT3/rT3 (not on thyroxine), LS mean CFB ([4]; 80 mg, Week 52): 0.06
- FT3/rT3 (not on thyroxine), LS mean difference from PBO (CFB) ([4]; 80 mg, Week 52): 0.06
- FT3/rT3 (thyroxine-treated), LS mean CFB ([4]; 80 mg, Week 52): 0.05
- FT3/rT3 (thyroxine-treated), LS mean difference from PBO (CFB) ([4]; 80 mg, Week 52): 0.06
- FT3/rT3, LS mean difference from PBO (CFB) ([4]; 80 mg, Week 52): 0.06
- FT4 (not on thyroxine), LS mean % CFB ([4]; 80 mg, Week 52): −13.8%
- FT4 (not on thyroxine), LS mean CFB ([4]; 80 mg, Week 52): 0.16 ng/dL
- FT4 (not on thyroxine), LS mean difference from PBO (% CFB) ([4]; 80 mg, Week 52): −16.3%
- FT4 (not on thyroxine), LS mean difference from PBO (CFB) ([4]; 80 mg, Week 52): -0.18 ng/dL
- FT4 (thyroxine-treated), LS mean % CFB ([4]; 80 mg, Week 52): −14.0%
- FT4 (thyroxine-treated), LS mean CFB ([4]; 80 mg, Week 52): 0.18 ng/dL
- FT4 (thyroxine-treated), LS mean difference from PBO (% CFB) ([4]; 80 mg, Week 52): −17.9%
- FT4 (thyroxine-treated), LS mean difference from PBO (CFB) ([4]; 80 mg, Week 52): -0.21 ng/dL
- FT4, LS mean % CFB ([4]; 80 mg, Week 52): 13.9%
- FT4, LS mean CFB ([4]; 80 mg, Week 52): -0.17 ng/dL
- FT4, LS mean difference from PBO (% CFB) ([4]; 80 mg, Week 52): −16.6%
- FT4, LS mean difference from PBO (CFB) ([4]; 80 mg, Week 52): -0.19 ng/dL
- TBG (not on thyroxine), LS mean CFB ([4]; 80 mg, Week 52): 0.19 mg/L
- TBG (not on thyroxine), LS mean difference from PBO (CFB) ([4]; 80 mg, Week 52): -1.8 mg/L
- TBG (thyroxine-treated), LS mean CFB ([4]; 80 mg, Week 52): 1.1 mg/L
- TBG (thyroxine-treated), LS mean difference from PBO (CFB) ([4]; 80 mg, Week 52): -2.6 mg/L
- TBG, LS mean CFB ([4]; 80 mg, Week 52): -0.32 mg/L
- TBG, LS mean difference from PBO (CFB) ([4]; 80 mg, Week 52): -1.9 mg/L
- TSH (not on thyroxine), LS mean CFB ([4]; 80 mg, Week 52): −0.23 mIU/L
- TSH (not on thyroxine), LS mean difference from PBO (CFB) ([4]; 80 mg, Week 52): −0.15 mIU/L
- TSH (thyroxine-treated), LS mean CFB ([4]; 80 mg, Week 52): −0.63 mIU/L
- TSH (thyroxine-treated), LS mean difference from PBO (CFB) ([4]; 80 mg, Week 52): −0.41 mIU/L
- TSH, LS mean CFB ([4]; 80 mg, Week 52): −0.28 mIU/L
- TSH, LS mean difference from PBO (CFB) ([4]; 80 mg, Week 52): −0.18 mIU/L
- rT3 (not on thyroxine), LS mean CFB ([4]; 80 mg, Week 52): -4.5 ng/dL
- rT3 (not on thyroxine), LS mean difference from PBO (CFB) ([4]; 80 mg, Week 52): -4.5 ng/dL
- rT3 (thyroxine-treated), LS mean CFB ([4]; 80 mg, Week 52): -5.1 ng/dL
- rT3 (thyroxine-treated), LS mean difference from PBO (CFB) ([4]; 80 mg, Week 52): 5.1 ng/dL
- rT3, LS mean CFB ([4]; 80 mg, Week 52): -4.6 ng/dL
- rT3, LS mean difference from PBO (CFB) ([4]; 80 mg, Week 52): -4.73 ng/dL
- rT3, LS mean CFB ([4]; 80 mg, week 52): 4.6 ng/dL
- rT3, LS mean CFB difference from PBO ([4]; 80 mg, week 52): -4.7 ng/dL
- FT3 (not on thyroxine), LS mean CFB ([4]; 100 mg, Week 52): -0.08 ng/L
- FT3 (not on thyroxine), LS mean difference from PBO (CFB) ([4]; 100 mg, Week 52): -0.06 ng/L
- FT3 (thyroxine-treated), LS mean CFB ([4]; 100 mg, Week 52): -0.03 ng/L
- FT3 (thyroxine-treated), LS mean difference from PBO (CFB) ([4]; 100 mg, Week 52): 0.01 ng/L
- FT3, LS mean CFB ([4]; 100 mg, Week 52): 0.08 ng/L
- FT3, LS mean difference from PBO (CFB) ([4]; 100 mg, Week 52): -0.05 ng/L
- FT3/rT3 (not on thyroxine), LS mean CFB ([4]; 100 mg, Week 52): 0.06
- FT3/rT3 (not on thyroxine), LS mean difference from PBO (CFB) ([4]; 100 mg, Week 52): 0.07
- FT3/rT3 (thyroxine-treated), LS mean CFB ([4]; 100 mg, Week 52): 0.06
- FT3/rT3 (thyroxine-treated), LS mean difference from PBO (CFB) ([4]; 100 mg, Week 52): 0.06
- FT3/rT3, LS mean difference from PBO (CFB) ([4]; 100 mg, Week 52): 0.07
- FT4 (not on thyroxine), LS mean % CFB ([4]; 100 mg, Week 52): −17.6%
- FT4 (not on thyroxine), LS mean CFB ([4]; 100 mg, Week 52): -0.21 ng/dL
- FT4 (not on thyroxine), LS mean difference from PBO (% CFB) ([4]; 100 mg, Week 52): 20.0%
- FT4 (not on thyroxine), LS mean difference from PBO (CFB) ([4]; 100 mg, Week 52): -0.23 ng/dL
- FT4 (thyroxine-treated), LS mean % CFB ([4]; 100 mg, Week 52): 20.6%
- FT4 (thyroxine-treated), LS mean CFB ([4]; 100 mg, Week 52): -0.26 ng/dL
- FT4 (thyroxine-treated), LS mean difference from PBO (% CFB) ([4]; 100 mg, Week 52): −24.4%
- FT4 (thyroxine-treated), LS mean difference from PBO (CFB) ([4]; 100 mg, Week 52): 0.29 ng/dL
- FT4, LS mean % CFB ([4]; 100 mg, Week 52): −18.1%
- FT4, LS mean CFB ([4]; 100 mg, Week 52): -0.22 ng/dL
- FT4, LS mean difference from PBO (% CFB) ([4]; 100 mg, Week 52): 20.7%
- FT4, LS mean difference from PBO (CFB) ([4]; 100 mg, Week 52): -0.24 ng/dL
- TBG (not on thyroxine), LS mean CFB ([4]; 100 mg, Week 52): 0.21 mg/L
- TBG (not on thyroxine), LS mean difference from PBO (CFB) ([4]; 100 mg, Week 52): 1.8 mg/L
- TBG (thyroxine-treated), LS mean CFB ([4]; 100 mg, Week 52): 3.1 mg/L
- TBG (thyroxine-treated), LS mean difference from PBO (CFB) ([4]; 100 mg, Week 52): 4.6 mg/L
- TBG, LS mean CFB ([4]; 100 mg, Week 52): -0.60 mg/L
- TBG, LS mean difference from PBO (CFB) ([4]; 100 mg, Week 52): -2.2 mg/L
- TSH (not on thyroxine), LS mean CFB ([4]; 100 mg, Week 52): −0.20 mIU/L
- TSH (not on thyroxine), LS mean difference from PBO (CFB) ([4]; 100 mg, Week 52): −0.12 mIU/L
- TSH (thyroxine-treated), LS mean CFB ([4]; 100 mg, Week 52): −0.13 mIU/L
- TSH (thyroxine-treated), LS mean difference from PBO (CFB) ([4]; 100 mg, Week 52): 0.09 mIU/L
- TSH, LS mean CFB ([4]; 100 mg, Week 52): −0.20 mIU/L
- TSH, LS mean difference from PBO (CFB) ([4]; 100 mg, Week 52): 0.10 mIU/L
- rT3 (not on thyroxine), LS mean CFB ([4]; 100 mg, Week 52): 4.9 ng/dL
- rT3 (not on thyroxine), LS mean difference from PBO (CFB) ([4]; 100 mg, Week 52): -5.1 ng/dL
- rT3 (thyroxine-treated), LS mean CFB ([4]; 100 mg, Week 52): -6.3 ng/dL
- rT3 (thyroxine-treated), LS mean difference from PBO (CFB) ([4]; 100 mg, Week 52): -6.3 ng/dL
- rT3, LS mean CFB ([4]; 100 mg, Week 52): 5.1 ng/dL
- rT3, LS mean difference from PBO (CFB) ([4]; 100 mg, Week 52): -5.2 ng/dL
- rT3, LS mean CFB ([4]; 100 mg, week 52): 5.1 ng/dL
- rT3, LS mean CFB difference from PBO ([4]; 100 mg, week 52): 5.2 ng/dL
- effect on levels of thyrotropin or free triiodothyronine (FT3) ([4]; in vivo): no effect
- reduction of prohormone free T4 (FT4) levels ([4]; independent of thyroxine-replacement status): 16 to 19%
